Patent US11033569B2, “Compounds,Compositions, and methods for the treatment of disease” (Sperovie Biosciences, Inc., priority 2016, dated 2021)
Entries after “also recorded” stand apart in the source; their conditions may differ. Read-outs that look alike come from different tables or passages of the source.

Experiments:
ISG54 ISRE-luc reporter = ISG54 ISRE-luc reporter activation in HEK293 (SZ14) cells, screen for STING agonists; type: cell-based; settings: digitonin buffer, 5 hours, read-out: IRF EC50
Procedure: (§1) ISG54 or NF-κβ activity was determined using the Steady-glo buffer system (Promega), and are expressed as EC50 values summarized in Table 3 below. […] This calculation is applicable for compounds with enzyme inhibition activity, as the baseline for an untreated sample may be set at 100% enzymatic activity, and therefore % inhibition is evaluated based on this 100% maximal basis. For these studies, the EC50 value relates to the concentration required to achieve a value 50% activity level above the untreated sample set at 0%.
(§2) Data are shown as fold induction over cells that received DMSO (compound carrier) alone as the mean, +/−standard deviation of duplicate wells per stimulant.

NF-κβ-luc reporter = NF-κβ-luc reporter activation in HEK293 (SZ14) cells, screen for STING agonists; type: cell-based; settings: digitonin buffer, 5 hours, read-out: NF-KB EC50
Procedure: as §1, §2

A20 lymphoma = test: Syngeneic A20 lymphoma mouse model; type: in vivo; settings: monotherapy; for tumor growth: compared with vehicle
THP1 cells and PBMCs = test: Gene expression of ISGs and PRRs in THP1 and PBMCs (real time PCR); type: cell-based; settings: 5 uM, Lipofectamine LTX, 20 h
Procedure: (§3) After incubation for 20 h, RNA was extracted and gene expression of different Interferon Stimulated Genes (ISGs) and various Pattern Recognition Receptors (PRRs) was evaluated by real time PCR. Fold Induction was calculated by ΔΔct method.
as §3

mouse macrophages = test: Type I IFN signaling in mouse macrophages; type: cell-based; settings: mouse macrophages (FIG. 36B)
Procedure: Activity of secreted luciferase in cell culture supernatant was measured using Invivogen Quanti-luc. Data are shown as fold induction over DMSO treated cells (mean±standard deviation of triplicate wells per stimulant).

human monocytes = test: Activity in human monocytes; type: cell-based; settings: human monocytes (FIG. 36A)
THP1 cells = test: Type III IFN (IL-29) production in THP1 cells (ELISA); type: cell-based; settings: 21 hrs
Procedure: Level of IL-29 in culture supernatant was determined using ELISA. Results shown are the average±standard deviation of duplicate wells.

CT26 colon cancer = test: Syngeneic CT26 colon cancer mouse model; type: in vivo; settings: intratumoral administration
[1] = vs vehicle, vehicle and Ethanol (FIG. 80)

| Structure (SMILES) | EC50 (ISG54 ISRE-luc reporter) [nM] | EC50 (NF-κβ-luc reporter) [nM] | further results |
| --- | --- | --- | --- |
| CCCCCCCCCCOc1ccc(C(=O)Oc2ccc(CS[P@]3(=O)OC[C@H]4O[C@@H](n5cnc6c(N)ncnc65)[C@H](F)[C@@H]4OP(=O)(O)OC[C@H]4O[C@@H](n5ccc(=O)[nH]c5=O)[C@H](F)[C@@H]4O3)cc2)cc1.N (single isomer, unassigned) [Cmd 1A] | < 50 | 50 to 500 | survival rate (A20 lymphoma): significantly improve the survival rate; tumor growth (A20 lymphoma): inhibit mouse A20 B cell lymphoma tumor cells |
| CCCCCCCCCCOc1ccc(C(=O)Oc2ccc(CS[P@@]3(=O)OC[C@H]4O[C@@H](n5cnc6c(N)ncnc65)[C@H](F)[C@@H]4OP(=O)(O)OC[C@H]4O[C@@H](n5ccc(=O)[nH]c5=O)[C@H](F)[C@@H]4O3)cc2)cc1 (single isomer, unassigned) [Cmd 1B] | < 50 | 50 to 500 | – |
| Nc1ncnc2c1ncn2[C@@H]1O[C@@H]2COP(=O)(S)O[C@H]3[C@@H](F)[C@H](n4ccc(=O)[nH]c4=O)O[C@@H]3COP(=O)(S)O[C@H]2[C@H]1F (some centres unmarked) [Cmd 2] | – | – | EC50 (ISG54 ISRE-luc reporter; Homo sapiens): 1000 to 2000 nM; EC50 (NF-κβ-luc reporter; Homo sapiens): > 2000 nM |
| CCCCCCCCCCOc1ccc(C(=O)Oc2ccc(CSP3(=O)OC[C@H]4O[C@@H](n5cnc6c(N)ncnc65)[C@H](F)[C@@H]4OP(=O)(SCc4ccc(OC(=O)c5ccc(OCCCCCCCCCC)cc5)cc4)OC[C@H]4O[C@@H](n5ccc(=O)[nH]c5=O)[C@H](F)[C@@H]4O3)cc2)cc1 (some centres unmarked) [Cmd 4] | 1000 to 2000 | > 2000 | induction of ISG and PRR-associated genes, THP1 compared to PBMCs (THP1 cells and PBMCs): Enhanced Activity |
| CC(C)OC(=O)OCSP1(=O)OC[C@H]2O[C@@H](n3cnc4c(N)ncnc43)[C@H](F)[C@@H]2OP(=O)(O)OC[C@H]2O[C@@H](n3ccc(=O)[nH]c3=O)[C@H](F)[C@@H]2O1.N (some centres unmarked) [Cmd 5] | > 2000 | > 2000 | activity relative to natural STING ligand 3′,3′-cGAMP (mouse macrophages): more active; activity relative to natural STING ligand 3′,3′-cGAMP (human monocytes): more active |
| CCCCCCCCOc1ccc(C(=O)Oc2ccc(CSP3(=O)OC[C@H]4O[C@@H](n5cnc6c(N)ncnc65)[C@H](F)[C@@H]4OP(=O)(O)OC[C@H]4O[C@@H](n5ccc(=O)[nH]c5=O)[C@H](F)[C@@H]4O3)cc2)cc1.N (some centres unmarked) [Cmd 12] | < 50 | < 50 | activity relative to natural STING ligand 3′,3′-cGAMP (mouse macrophages): more active; activity relative to natural STING ligand 3′,3′-cGAMP (human monocytes): more active |
| CCCCCCCCCCCC(=O)Oc1ccc(CSP2(=O)OC[C@H]3O[C@@H](n4cnc5c(N)ncnc54)[C@H](F)[C@@H]3OP(=O)(O)OC[C@H]3O[C@@H](n4ccc(=O)[nH]c4=O)[C@H](F)[C@@H]3O2)cc1.N (some centres unmarked) [Cmd 13] | < 50 | 50 to 500 | activity relative to natural STING ligand 3′,3′-cGAMP (mouse macrophages): more active; activity relative to natural STING ligand 3′,3′-cGAMP (human monocytes): more active |
| CCCCCCOc1ccc(C(=O)Oc2ccc(CSP3(=O)OC[C@H]4O[C@@H](n5cnc6c(N)ncnc65)[C@H](F)[C@@H]4OP(=O)(O)OC[C@H]4O[C@@H](n5ccc(=O)[nH]c5=O)[C@H](F)[C@@H]4O3)cc2)cc1.N (some centres unmarked) [Cmd 14] | < 50 | < 50 | activity relative to natural STING ligand 3′,3′-cGAMP (mouse macrophages): more active; activity relative to natural STING ligand 3′,3′-cGAMP (human monocytes): more active |
| CCCCCCCCCCCCOc1ccc(C(=O)Oc2ccc(CSP3(=O)OC[C@H]4O[C@@H](n5cnc6c(N)ncnc65)[C@H](F)[C@@H]4OP(=O)(O)OC[C@H]4O[C@@H](n5ccc(=O)[nH]c5=O)[C@H](F)[C@@H]4O3)cc2)cc1.N (some centres unmarked) [Cmd 15] | < 50 | < 50 | activity relative to natural STING ligand 3′,3′-cGAMP (mouse macrophages): more active; activity relative to natural STING ligand 3′,3′-cGAMP (human monocytes): more active; type III interferon (IL-29) production (THP1 cells): induce type III interferon (IL-29) production |
| CO[C@@H]1[C@@H]2OP(=O)(S)OC[C@H]3O[C@@H](n4cnc5c(N)ncnc54)C[C@@H]3OP(=O)(S)OC[C@H]2O[C@H]1n1ccc(=O)[nH]c1=O (some centres unmarked) [Cmd 17] | – | – | EC50 (ISG54 ISRE-luc reporter; Homo sapiens): > 2000 nM; EC50 (NF-κβ-luc reporter; Homo sapiens): > 2000 nM |
| Nc1nc2c(ncn2[C@@H]2O[C@@H]3COP(=O)(S)O[C@H]4[C@@H](O)[C@H](n5cnc6c(=O)[nH]c(N)nc65)O[C@@H]4COP(=O)(S)O[C@H]3[C@H]2O)c(=O)[nH]1 (some centres unmarked) [Cmd 18] | – | – | EC50 (ISG54 ISRE-luc reporter; Homo sapiens): > 2000 nM; EC50 (NF-κβ-luc reporter; Homo sapiens): > 2000 nM |
| CCCCCCCCCCOc1ccc(C(=O)Oc2ccc(CSP3(=O)OC[C@H]4O[C@@H](n5cnc6c(N)ncnc65)C[C@@H]4OP(=O)(SCc4ccc(OC(=O)c5ccc(OCCCCCCCCCC)cc5)cc4)OC[C@H]4O[C@@H](n5ccc(=O)[nH]c5=O)[C@H](OC)[C@@H]4O3)cc2)cc1 (some centres unmarked) [Cmd 20] | > 2000 | > 2000 | – |
| N.N.Nc1ncnc2c1ncn2[C@@H]1O[C@@H]2COP(=O)(S)O[C@H]3[C@@H](F)[C@H](n4ccc(=O)[nH]c4=O)O[C@@H]3COP(=O)(O)O[C@H]2[C@H]1F (some centres unmarked) [Cmd 21] | – | – | EC50 (ISG54 ISRE-luc reporter; Homo sapiens): 500 to 1000 nM; EC50 (NF-κβ-luc reporter; Homo sapiens): > 2000 nM; survival rate (A20 lymphoma): significantly improve the survival rate; tumor growth (A20 lymphoma): considerable tumor growth inhibition; also recorded: inhibit mouse A20 B cell lymphoma tumor cells; tumor growth (CT26 colon cancer; vs vehicle (FIG. 79)): considerable tumor growth inhibition; tumor growth (CT26 colon cancer; [1]): considerable tumor growth inhibition |
| CCCCCCCCCCCCOc1ccc(C(=O)Oc2ccc(CS[P@@]3(=O)OC[C@H]4O[C@@H](n5cnc6c(N)ncnc65)[C@H](F)[C@@H]4OP(=O)(O)OC[C@H]4O[C@@H](n5ccc(=O)[nH]c5=O)[C@H](F)[C@@H]4O3)cc2)cc1 [Cmd 22] | < 50 | 50 to 500 | – |
| CCCCCCCCCCCCOc1ccc(C(=O)Oc2ccc(CS[P@]3(=O)OC[C@H]4O[C@@H](n5cnc6c(N)ncnc65)[C@H](F)[C@@H]4OP(=O)(O)OC[C@H]4O[C@@H](n5ccc(=O)[nH]c5=O)[C@H](F)[C@@H]4O3)cc2)cc1 [Cmd 23] | < 50 | 50 to 500 | – |
| CCCCCCCCCCOc1ccc(C(=O)Oc2ccc(CSP3(=O)OC[C@H]4O[C@@H](n5cnc6c(N)ncnc65)[C@H](F)[C@@H]4OP(=O)(O)OC[C@H]4O[C@@H](n5ccc(=O)[nH]c5=O)[C@H](F)[C@@H]4O3)cc2)c(C)c1 (some centres unmarked) [Cmd 25] | < 50 | 50 to 500 | tumor growth (CT26 colon cancer; vs vehicle (FIG. 79)): considerable tumor growth inhibition; tumor growth (CT26 colon cancer; [1]): considerable tumor growth inhibition |
| CCCCCCCCCCOC(=O)Oc1ccc(CSP2(=O)OC[C@H]3O[C@@H](n4cnc5c(N)ncnc54)[C@H](F)[C@@H]3OP(=O)(O)OC[C@H]3O[C@@H](n4ccc(=O)[nH]c4=O)[C@H](F)[C@@H]3O2)cc1 (some centres unmarked) [Cmd 26] | < 50 | < 50 | – |
| CCCCCCCCCCOc1ccc(Oc2ccc(CSP3(=O)OC[C@H]4O[C@@H](n5cnc6c(N)ncnc65)[C@H](F)[C@@H]4OP(=O)(O)OC[C@H]4O[C@@H](n5ccc(=O)[nH]c5=O)[C@H](F)[C@@H]4O3)cc2)cc1 (some centres unmarked) [Cmd 29] | 50 to 500 | 500 to 1000 | – |
| CCCCCCCCCCOc1ccc(C(=O)Nc2ccc(CSP3(=O)OC[C@H]4O[C@@H](n5cnc6c(N)ncnc65)[C@H](F)[C@@H]4OP(=O)(O)OC[C@H]4O[C@@H](n5ccc(=O)[nH]c5=O)[C@H](F)[C@@H]4O3)cc2)cc1 (some centres unmarked) [Cmd 30] | 500 to 1000 | > 2000 | – |
| CCCCCCCCCCOc1ccc(C(=O)NCc2ccc(CSP3(=O)OC[C@H]4O[C@@H](n5cnc6c(N)ncnc65)[C@H](F)[C@@H]4OP(=O)(O)OC[C@H]4O[C@@H](n5ccc(=O)[nH]c5=O)[C@H](F)[C@@H]4O3)cc2)cc1 (some centres unmarked) [Cmd 31] | 500 to 1000 | > 2000 | – |
| CCCCCCCCCCNC(=O)Oc1ccc(CSP2(=O)OC[C@H]3O[C@@H](n4cnc5c(N)ncnc54)[C@H](F)[C@@H]3OP(=O)(O)OC[C@H]3O[C@@H](n4ccc(=O)[nH]c4=O)[C@H](F)[C@@H]3O2)cc1 (some centres unmarked) [Cmd 32] | 50 to 500 | 50 to 500 | – |
